Test results reported in patent publication US20120214862A1, “MODULATION OF FACTOR 7 EXPRESSION” (ISIS Pharmaceuticals, Inc., priority 2009, published 2012).
In the oligonucleotide strings, read from the 5' end, every base follows the letter of its sugar. An asterisk marks phosphorothioate; unmarked linkages are phosphodiester. Other units and linkages are bracketed, terminal groups are in braces. A string of capitals states the bases alone. e = 2'-O-(2-methoxyethyl) (MOE); [5mC] = 5-methylcytosine; d = 2'-deoxy (DNA)

Legend:
Assay type in all cases: cell-based
human Factor 7 mRNA [1] = experiment: Antisense inhibition of human Factor 7 mRNA in HepB3 cells, lipofectin, 50 nM, real-time RT-PCR; settings: HepB3 cells
Method in brief: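 Percent inhibition of Factor 7 mRNA, relative to untreated control, comes from real-time RT-PCR with RIBOGREEN normalization, using primer probe set RTS 2927 in some runs. RNA was taken roughly 24 h after lipofectin delivery of 50 nM oligonucleotide into HepB3 cells.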

human Factor 7 mRNA [2] = experiment: Dose-dependent antisense inhibition of human Factor 7 in HepB3 cells, transfection with lipofectin; settings: lipofectin, HepB3 cells, 16 hours
Method in brief: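 HepB3 cells (4,000/well) lipofectin-transfected with antisense oligonucleotide at 3.125 or 6.25 up to 100 nM for ~16 h. Factor 7 mRNA measured by real-time RT-PCR with primer probe set RTS 2927, adjusted to RIBOGREEN total RNA; expressed as percent inhibition versus untreated control cells.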

human Factor 7 mRNA [3] = experiment: Dose-dependent antisense inhibition of human Factor 7 in HepB3 cells, transfection with electroporation
Experimental: (§1) The gapmers were also transfected via electroporation and their dose-dependent inhibition of human Factor 7 mRNA was measured. Cells were plated at a density of 20,000 cells per well and transfected via electroporation with 3.125 μM, 6.25 μM, 12.5 μM, 25 μM, 50 μM, and 100 μM concentrations of antisense oligonucleotide, as specified in Table 15. After a treatment period of approximately 16 hours, RNA was isolated from the cells and Factor 7 mRNA levels were measured by quantitative real-time PCR. Human Factor 7 primer probe set RTS 2927 was used to measure mRNA levels. Factor 7 mRNA levels were adjusted according to total RNA content, as measured by RIBOGREEN®. Results are presented as percent inhibition of Factor 7, relative to untreated control cells.
as §1, with “Cells were” for “The gapmers were also transfected via electroporation and their dose-dependent inhibition of human Factor 7 mRNA was measured. Cells were”, “in Table 16. After a” for “in Table 15. After a”, “cells and human Factor 7” for “cells and Factor 7”

[4] = 3.125 μM, 16 hours (Example 7, Table 15)
[5] = 6.25 μM, 16 hours (Example 7, Table 15)
[6] = 12.5 μM, 16 hours (Example 7, Table 15)
[7] = 25 μM, 16 hours (Example 7, Table 15)
[8] = 50 μM, 16 hours (Example 7, Table 15)
[9] = 100 μM, 16 hours (Example 7, Table 15)

With “422150 (antisense eG*e[5mC]*eA*dT*dG*dG*dT*dG*dA*dT*dG*d[5mC]*dT*dT*d[5mC]*dT*dG*eA*eA*eT) [compound 422150]” the “% Inhibition of human Factor 7 mRNA levels” value (“% Inhibition” below) (human Factor 7 mRNA [1]; gapmers targeted to nucleobases 15188 to 15211 of SEQ ID NO: 1 (Table 13)) was 74%, the “percent inhibition of Factor 7 mRNA, relative to untreated control cells” value (human Factor 7 mRNA [2]; 3.125 nM) was 9% and the “percent inhibition of Factor 7 mRNA, relative to untreated control cells” value (human Factor 7 mRNA [2]; 12.5 nM) was 38%. The “percent inhibition of Factor 7 mRNA, relative to untreated control cells” value (human Factor 7 mRNA [2]; 25 nM) was 59%, the “percent inhibition of Factor 7 mRNA, relative to untreated control cells” value (human Factor 7 mRNA [2]; 50 nM) was 79% and the “percent inhibition of Factor 7 mRNA, relative to untreated control cells” value (human Factor 7 mRNA [2]; 100 nM) was 87%. For the same substance, the “percent inhibition of Factor 7 mRNA, relative to untreated control cells” value (human Factor 7 mRNA [2]) was 23%, the “percent inhibition of Factor 7 mRNA, relative to untreated control cells” value (human Factor 7 mRNA [3]; [4]) was 17% and the “percent inhibition of Factor 7 mRNA, relative to untreated control cells” value (human Factor 7 mRNA [3]; 3.125 μM, 16 hours (Example 8, Table 16)) was 0%. The “percent inhibition of Factor 7 mRNA, relative to untreated control cells” value (human Factor 7 mRNA [3]; [5]) was 20%, the “percent inhibition of Factor 7 mRNA, relative to untreated control cells” value (human Factor 7 mRNA [3]; 6.25 μM, 16 hours (Example 8, Table 16)) was 31% and the “percent inhibition of Factor 7 mRNA, relative to untreated control cells” value (human Factor 7 mRNA [3]; [6]) was 40%. The “percent inhibition of Factor 7 mRNA, relative to untreated control cells” value (human Factor 7 mRNA [3]; 12.5 μM, 16 hours (Example 8, Table 16)) was 53%, the “percent inhibition of Factor 7 mRNA, relative to untreated control cells” value (human Factor 7 mRNA [3]; [7]) was 54% and the “percent inhibition of Factor 7 mRNA, relative to untreated control cells” value (human Factor 7 mRNA [3]; 25 μM, 16 hours (Example 8, Table 16)) was 67%. For the same substance, the “percent inhibition of Factor 7 mRNA, relative to untreated control cells” value (human Factor 7 mRNA [3]; [8]) was 68%, the “percent inhibition of Factor 7 mRNA, relative to untreated control cells” value (human Factor 7 mRNA [3]; 50 μM, 16 hours (Example 8, Table 16)) was 77% and the “percent inhibition of Factor 7 mRNA, relative to untreated control cells” value (human Factor 7 mRNA [3]; [9]) was 83%. For the same substance, the “percent inhibition of Factor 7 mRNA, relative to untreated control cells” value (human Factor 7 mRNA [3]; 100 μM, 16 hours (Example 8, Table 16)) was 86%.

In the case of “422096 (antisense eA*eG*eA*e[5mC]*eA*dA*dT*dG*dG*dT*d[5mC]*dA*dG*dG*dG*e[5mC]*eT*eG*eG*eT) [compound 422096]”, the “% Inhibition” value (human Factor 7 mRNA [1]; gapmers targeted to nucleobases 11830 to 11869 of SEQ ID NO: 1 (Table 9)) is reported as 76%, the “percent inhibition of Factor 7 mRNA, relative to untreated control cells” value (human Factor 7 mRNA [2]; 3.125 nM) is reported as 17% and the “percent inhibition of Factor 7 mRNA, relative to untreated control cells” value (human Factor 7 mRNA [2]; 12.5 nM) is reported as 43%. For the same substance, the “percent inhibition of Factor 7 mRNA, relative to untreated control cells” value (human Factor 7 mRNA [2]; 25 nM) was 60%, the “percent inhibition of Factor 7 mRNA, relative to untreated control cells” value (human Factor 7 mRNA [2]; 50 nM) was 68% and the “percent inhibition of Factor 7 mRNA, relative to untreated control cells” value (human Factor 7 mRNA [2]; 100 nM) was 82%. The “percent inhibition of Factor 7 mRNA, relative to untreated control cells” value (human Factor 7 mRNA [2]) was 23%, the “percent inhibition of Factor 7 mRNA, relative to untreated control cells” value (human Factor 7 mRNA [3]; [4]) was 26% and the “percent inhibition of Factor 7 mRNA, relative to untreated control cells” value (human Factor 7 mRNA [3]; [5]) was 30%. For the same substance, the “percent inhibition of Factor 7 mRNA, relative to untreated control cells” value (human Factor 7 mRNA [3]; [6]) was 46%, the “percent inhibition of Factor 7 mRNA, relative to untreated control cells” value (human Factor 7 mRNA [3]; [7]) was 50% and the “percent inhibition of Factor 7 mRNA, relative to untreated control cells” value (human Factor 7 mRNA [3]; [8]) was 62%. The “percent inhibition of Factor 7 mRNA, relative to untreated control cells” value (human Factor 7 mRNA [3]; [9]) was 85%.

“422140 (antisense eG*eT*eT*e[5mC]*eT*dG*d[5mC]*dA*dG*dG*dA*dG*d[5mC]*dG*dG*e[5mC]*e[5mC]*eT*eA*eA) [compound 422140]” was tested, and the “% Inhibition” value (human Factor 7 mRNA [1]; gapmers (5-10-5, 3-14-3, 2-13-5 MOE) targeted to nucleobases 4868 to 4899 of SEQ ID NO: 1) was 74%, the “percent inhibition of Factor 7 mRNA, relative to untreated control cells” value (human Factor 7 mRNA [2]; 3.125 nM) was 18% and the “percent inhibition of Factor 7 mRNA, relative to untreated control cells” value (human Factor 7 mRNA [2]; 12.5 nM) was 49%. For the same substance, the “percent inhibition of Factor 7 mRNA, relative to untreated control cells” value (human Factor 7 mRNA [2]; 25 nM) was 64%, the “percent inhibition of Factor 7 mRNA, relative to untreated control cells” value (human Factor 7 mRNA [2]; 50 nM) was 74% and the “percent inhibition of Factor 7 mRNA, relative to untreated control cells” value (human Factor 7 mRNA [2]; 100 nM) was 74%. The “percent inhibition of Factor 7 mRNA, relative to untreated control cells” value (human Factor 7 mRNA [2]) was 35%, the “percent inhibition of Factor 7 mRNA, relative to untreated control cells” value (human Factor 7 mRNA [3]; [4]) was 29% and the “percent inhibition of Factor 7 mRNA, relative to untreated control cells” value (human Factor 7 mRNA [3]; [5]) was 34%. The “percent inhibition of Factor 7 mRNA, relative to untreated control cells” value (human Factor 7 mRNA [3]; [6]) was 51%, the “percent inhibition of Factor 7 mRNA, relative to untreated control cells” value (human Factor 7 mRNA [3]; [7]) was 64% and the “percent inhibition of Factor 7 mRNA, relative to untreated control cells” value (human Factor 7 mRNA [3]; [8]) was 69%. The “percent inhibition of Factor 7 mRNA, relative to untreated control cells” value (human Factor 7 mRNA [3]; [9]) was 77%.
